The text below walks through data of patent publication US9757408B2 (Hayashibara Co., Ltd., priority 2010, dated 2017).

Data set [1] concerns TNF-α production from mouse intraperitoneal macrophages. Description: IC50 for TNF-α production from mouse macrophages, LPS + IFN-γ, nucleic acid derivatives (Experiment 19). The class given is cell-based. The following applies: for IC50 / IC50 Concentration TNF-α: mouse macrophages, LPS and IFN-γ, 20 hours; for IC50: read-out: IC50 Concentration TNF-α; for inhibitory action on the production of inflammatory cytokines (in words): mouse intraperitoneal macrophages stimulated with LPS and IFN-γ. From the text: (§1) After completion of the culture, the supernatant in each well was collected and assayed for cytokines and prostaglandin E2 (called “PGE2”, hereinafter) with ELISA.

In data set [2] the test system is IL-6 production from mouse intraperitoneal macrophages. The data set can be described thus: IC50 for IL-6 production from mouse macrophages, LPS + IFN-γ (Experiment 19). The class given is cell-based. Conditions: for IC50 Concentration IL-6 / IC50: mouse macrophages, LPS and IFN-γ, 20 hours; for IC50: read-out: IC50 Concentration IL-6; for inhibition of the production of IL-6 (in words): mouse intraperitoneal macrophages stimulated with LPS and IFN-γ.
Text: as §1

Data set [3] concerns IL-12 production from mouse intraperitoneal macrophages. The data set can be described thus: IC50 for IL-12 production from mouse macrophages, LPS + IFN-γ (Experiment 19). The class given is cell-based. Conditions: mouse macrophages, LPS and IFN-γ, 20 hours; read-out: IC50 Concentration IL-12.
Text: as §1

The test system of data set [4] is PGE2 production from mouse intraperitoneal macrophages. The data set can be described thus: IC50 for PGE2 production from mouse macrophages, LPS + IFN-γ (Experiment 19). Type of data set: cell-based. Conditions: mouse macrophages, LPS and IFN-γ, 20 hours; read-out: IC50 Concentration PGE2.
Text: as §1

The subject of data set [5] is BALB/c mice. The data set can be described thus: Safeness of injection preparations, i.v. once a day for seven days (Example 2). The following applies: BALB/c mice. Type of data set: in vivo. As to the method: The safeness of the preparations prepared in the above was evaluated.
Data set [6] has as its system BALB/c mice. The data set can be described thus: Acute toxicity test, intraperitoneal (Experiment 20). The following applies: BALB/c mice, intraperitoneal. The procedure:
As a control, only PBS was intraperitoneally administered to 10 BALB/c mice (6-week-old, female, average weight of 20 g, commercialized by Charles River Laboratories Japan Inc., Tokyo, Japan) at a dose of 1 mL/head, followed by observing the course of the mice for 24 hours.

Like-named read-outs stand apart in the source and are kept apart here. Some results are limits rather than exact numbers.

Turning to `Nc1nc2c([nH]c(=O)n2[C@H]2C[C@H](O)[C@@H](CO)O2)c(=O)[nH]1` [8-OH-deoxyguanine], the IC50 in data set [1] is more than 200 µM. In addition, in data set [2], the “IC50 Concentration IL-6” value was “Enhanced”.
The like results for `Nc1nc2c(nc(O)n2[C@@H]2O[C@H](CO)[C@@H](O)[C@H]2O)c(=O)[nH]1` [8-OH-guanosine] were, in that order, more than 200 µM and “Enhanced”.
Regarding `CC1(C)[C@@H](O)CC[C@]2(C)[C@H]3C(=O)C=C4[C@@H]5C[C@@](C)(C(=O)O)CC[C@]5(C)CC[C@@]4(C)[C@]3(C)CC[C@@H]12` [18β-glycyrrhetinate], the IC50 in data set [1] was 50.2 µM; in data set [3] it was more than 200 µM; in data set [2], 87.3 µM; in data set [4] it was more than 200 µM.
As to `CNC(=O)[C@H]1O[C@@H](n2cnc3c(NCc4cccc(I)c4)ncnc32)[C@H](O)[C@@H]1O` [IB-MECA, 1-deoxy-1-[6-[[(3-iodophenyl-)methyl]amino]-9H-purin-9-yl]-N-methyl-β-D-ribofuranuronamide], in data set [1], the IC50 worked out at 0.4 µM. Moreover, in data set [3], the IC50 worked out at 4.5 µM. In data set [2], the “inhibition of the production of IL-6 (in words)” value is “no inhibition” and the “IC50 Concentration IL-6” value was “Not inhibited”.
As to `Nc1c2[nH]cnc2nc[n+]1[O-]` [adenine N1-oxide], the values for the IC50 in data set [1] (Macrophage) and in data set [2] (Macrophage) were 137 µM and more than 200 µM, respectively. For the same compound, the “inhibitory action on the production of inflammatory cytokines (in words)” value (“inhibitory action on the production” for short) in data set [1] is “only a weak inhibitory action”.
Consider `Nc1ncnc2nc[nH]c12` [adenine], for which the IC50 is 85.2 µM in data set [1] (Macrophage) and more than 200 µM in data set [2] (Macrophage). Besides, the “inhibitory action on the production” value in data set [1] is recorded as “only a weak inhibitory action”.
Consider `Nc1ncnc2c1ncn2[C@@H]1O[C@H](COP(=O)(O)O)[C@@H](O)[C@H]1O` [adenosine 5′-monophosphate], for which the IC50 in data set [1] (Macrophage) was 32.1 µM. The “inhibitory action on the production” value in data set [1] is recorded as “only a weak inhibitory action”. In data set [2], the “IC50 Concentration IL-6” value is given as “Not inhibited”.
As to `Nc1c2ncn([C@@H]3O[C@H](COP(=O)(O)O)[C@@H](O)[C@H]3O)c2nc[n+]1[O-]` [adenosine N1-oxide 5′-monophosphate], the “change in body weight and other appearance versus PBS” value with BALB/c mice [5] (i.v. 0.3 mL/head once a day for seven days, followed two weeks) was “no significant change”. Also, the “clinical laboratory test results that provide indices of renal and liver functions versus PBS” value in the data set on BALB/c mice [5] (i.v. once a day for seven days, two weeks after initiating) is on record as “no difference”. Further, the IC50 was 0.9 µM in data set [1], more than 200 µM in data set [3] and 10.2 µM in data set [2]. Further, the “clinical laboratory test results that provide indices of renal and liver functions, versus control” value in the data set with BALB/c mice [6] (blood and urine at 24 hours) is “no difference”. Moreover, in the data set on BALB/c mice [6] (observed 24 hours), the “change in appearance after administration” value is “no change in appearance”. The “inhibition of the production of IL-6 (in words)” value in data set [2] is “strongly inhibited”.
For the compound `CC1(C)[C@@H](O[C@H]2O[C@H](C(=O)O)[C@@H](O)[C@H](O)[C@H]2O[C@@H]2O[C@H](C(=O)O)[C@@H](O)[C@H](O)[C@H]2O)CC[C@]2(C)[C@H]3C(=O)C=C4[C@@H]5C[C@@](C)(C(=O)O)CC[C@]5(C)CC[C@@]4(C)[C@]3(C)CC[C@@H]12` [dipotassium glycyrrhizinate], the IC50 in data set [1], in data set [3], in data set [2] and in data set [4] was more than 200 µM in each case.
Regarding `Nc1nc2nc[nH]c2c(=O)[nH]1` [guanine], the “IC50 Concentration TNF-α” value in data set [1] is “Not inhibited”. For the same compound, the “IC50 Concentration IL-6” value in data set [2] was “Not inhibited”.
With `Nc1nc2c(ncn2[C@@H]2O[C@H](COP(=O)(O)O)[C@@H](O)[C@H]2O)c(=O)[nH]1` [guanosine 5′-monophosphate], the “IC50 Concentration TNF-α” value in data set [1] is given as “Not inhibited”. In data set [2], the “IC50 Concentration IL-6” value is given as “Not inhibited”.
In the case of `Nc1nc2c(ncn2[C@@H]2O[C@H](CO)[C@@H](O)[C@H]2O)c(=O)[nH]1` [guanosine], in data set [1], the “IC50 Concentration TNF-α” value is listed as “Not inhibited”. Besides, in data set [2], the “IC50 Concentration IL-6” value is “Not inhibited”.
